According to US8389527B2, “Substituted imidazopyridazines useful as kinase inhibitors” (Bristol-Myers Squibb Company, priority 2008, dated 2013):

Tests used:
[1] = system: HCT116; assay: Cell proliferation inhibition assay (MTT, CellTiter96); type: cell-based; details: Homo sapiens, HCT-116; HCT116 cells, 72 h with compound, MTT readout
Protocol: B. Cell Proliferation Inhibition Assay
Compounds were evaluated for their ability to inhibit cell proliferation, using an assay that measures mitochondrial metabolic activity, that is directly correlated with cell numbers. Cells were plated at 2000 cells/well in 96-well plates and were cultured for 24 h in RPMI-1640 supplemented with 2% fetal bovine serum, before test compounds were added. Compounds were diluted in culture medium such that the final concentration of dimethyl sulfoxide never exceeded 1%. Following the addition of compounds, the cells were cultured for an additional 72 h before cell viability was determined by measuring the conversion of 3-(4,5-dimethylthiazol-2-yl)-2,5-diphenyltetrazolium bromide (MTT) dye using the CellTiter96 kit (Promega).

[2] = target: T1, recombinant CK2A1 (Homo sapiens, UniProt P68400); assay: CK2 kinase assay (CK2A1), [γ-33P]ATP filter-binding; type: biochemical; details: recombinant CK2A1 10 nM, ATP 25 μM, 10 μM peptide substrate, 30° C. 1 h
T1 construct: purchased Invitrogen
Protocol: (§1) The effectiveness of compounds of the present invention as inhibitors of protein kinases can be readily tested by assays known to those skilled in the art. For example, in vitro protein kinase assays may be conducted with a relevant purified protein kinase and an appropriate synthetic substrate to determine the inhibitory activities of the compounds. […] Reaction mixtures were incubated at 30° C. for 1 h, and reaction products were captured by binding to phosphocellulose (P81) filter plates. Incorporation of radioactive phosphate into the peptide substrate was determined by liquid scintillation counting. The potency of compounds in inhibiting CK2 is expressed as IC50, defined as the concentrations of compounds required to inhibit the enzymatic activity by 50%.

[3] = target: T2, recombinant CK2A2 (Homo sapiens, UniProt P19784); assay: CK2 kinase assay (CK2A2), [γ-33P]ATP filter-binding; type: biochemical; details: recombinant CK2A2 5 nM, ATP 5 μM, 10 μM peptide substrate, 30° C. 1 h
T2 construct: purchased Upstate Biotechnology
Protocol: as §1

T1 sequence (P68400 whole entry): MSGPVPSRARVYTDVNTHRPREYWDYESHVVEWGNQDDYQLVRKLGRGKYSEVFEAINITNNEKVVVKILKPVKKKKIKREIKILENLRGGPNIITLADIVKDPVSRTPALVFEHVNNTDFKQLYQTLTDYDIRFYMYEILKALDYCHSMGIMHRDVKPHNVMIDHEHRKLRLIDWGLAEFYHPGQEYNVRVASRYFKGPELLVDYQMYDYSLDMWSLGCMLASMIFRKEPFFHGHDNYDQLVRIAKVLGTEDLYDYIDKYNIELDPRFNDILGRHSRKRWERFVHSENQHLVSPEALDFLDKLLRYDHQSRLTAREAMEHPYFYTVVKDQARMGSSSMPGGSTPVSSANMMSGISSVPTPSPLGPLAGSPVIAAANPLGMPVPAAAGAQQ
T2 sequence (P19784 whole entry): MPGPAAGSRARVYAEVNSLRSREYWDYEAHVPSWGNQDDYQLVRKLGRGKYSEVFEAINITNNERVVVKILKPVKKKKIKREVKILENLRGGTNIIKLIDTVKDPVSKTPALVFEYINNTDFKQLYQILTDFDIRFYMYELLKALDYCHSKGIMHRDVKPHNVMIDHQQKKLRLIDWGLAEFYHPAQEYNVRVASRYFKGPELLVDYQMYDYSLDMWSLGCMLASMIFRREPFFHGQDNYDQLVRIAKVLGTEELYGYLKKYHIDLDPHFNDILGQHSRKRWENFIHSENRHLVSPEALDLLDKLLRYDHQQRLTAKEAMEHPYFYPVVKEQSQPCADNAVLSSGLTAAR

| SMILES | IC50 [1] | IC50 [2] | IC50 [3] |
| --- | --- | --- | --- |
| COCC(=O)N[C@H]1CC[C@H](Nc2cc(NC3CC3)c3ncc(C(=O)Nc4ccnc(Cl)c4)n3n2)CC1 [Example 167, N-(2-chloro-4-pyridinyl)-8-(cyclopropylamino)-6-((trans-4-((methoxyacetyl)amino)cyclohexyl)amino) imidazo[1,2-b]pyridazine-3-carboxamide] | > 2500 nM | 26.5 nM | 0.4 nM |
| C[C@H](N)C(=O)N[C@H]1CC[C@H](Nc2cc(NC3CC3)c3ncc(C(=O)Nc4ccnc(F)c4)n3n2)CC1 [Example 134, 6-((trans-4-(L-alanylamino)cyclohexyl)amino)-8-(cyclopropylamino)-N-(2-fluoro-4-pyridinyl)imidazo[1,2-b]pyridazine-3-carboxamide] | 170 nM | 55 nM | 13 nM |
| Cc1cc(Nc2cc(N[C@H]3CC[C@H](N)CC3)nn3c(C(=O)Nc4ccnc(Cl)c4)cnc23)nn1C [Example 542, 6-((trans-4-aminocyclohexyl)amino)-N-(2-chloro-4-pyridinyl)-8-((1,5-dimethyl-1H-pyrazol-3-yl)amino)imidazo[1,2-b]pyridazine-3-carboxamide] | 290 nM | 71 nM | 18 nM |
| Nc1cc(N[C@H]2CC[C@H](N)CC2)nn2c(C(=O)Nc3ccncc3)cnc12 [Example 39, 8-amino-6-(4-aminocyclohexylamino)-N-(pyridin-4-yl)imidazo[1,2-b]pyridazine-3-carboxamide] | 9950 nM | 102 nM | 43 nM |
| O=C(Nc1ccncc1F)c1cnc2c(NC3CC3)cc(NC3CCCC3)nn12 [Example 333, 6-(cyclopentylamino)-8-(cyclopropylamino)-N-(3-fluoro-4-pyridinyl)imidazo[1,2-b] pyridazine-3-carboxamide] | 220 nM | 26 nM | 5 nM |
| N[C@H]1CC[C@H](Nc2cc(NC3CC3)c3ncc(C(=O)Nc4ccncc4)n3n2)CC1 [Example 390, 6-((trans-4-aminocyclohexyl)amino)-8-(cyclopropylamino)-N-4-pyridinylimidazo [1,2-b]pyridazine-3-carboxamide] | 300 nM | 15 nM | 6 nM |
| N[C@H]1CC[C@H](Nc2cc(Nc3ccccc3)c3ncc(C(=O)Nc4ccncn4)n3n2)CC1 [Example 518, 6-((trans-4-aminocyclohexyl)amino)-8-anilino-N-4-pyrimidinylimidazo[1,2-b] pyridazine-3-carboxamide] | 170 nM | 58 nM | 42 nM |
| O=C(Nc1ccnc(Cl)c1)c1cnc2c(NC3CC3)cc(N[C@H]3CC[C@H](N(CCO)CCO)CC3)nn12 [Example 534, 6-((trans-4-(bis(2-hydroxyethyl)amino)cyclohexyl)amino)-N-(2-chloro-4-pyridinyl)-8-(cyclopropylamino)imidazo [1,2-b]pyridazine-3-carboxamide] | 1610 nM | 559 nM | 145 nM |
| NCCN[C@H]1CC[C@H](Nc2cc(NC3CC3)c3ncc(C(=O)Nc4ccnc(F)c4)n3n2)CC1 [Example 526, 6-((trans-4-((2-aminoethyl)amino)cyclohexyl)amino)-8-(cyclopropylamino)-N-(2-fluoro-4-pyridinyl)imidazo [1,2-b]pyridazine-3-carboxamide] | > 2500 nM | 153 nM | 61 nM |
| O=C(Nc1ccncc1F)c1cnc2c(Nc3cccc(N[C@H]4CC[C@H](O)CC4)n3)cc(N[C@H]3CC[C@H](O)CC3)nn12 [Example 45, N-(3-fluoro-4-pyridinyl)-6-((trans-4-hydroxycyclohexyl)amino)-8-((6-((trans-4-hydroxycyclohexyl)amino)-2-pyridinyl)amino)imidazo[1,2-b]pyridazine-3-carboxamide] | 140 nM | 34 nM | 8 nM |
| COCCNC(=O)N[C@H]1CC[C@H](Nc2cc(NC3CC3)c3ncc(C(=O)Nc4ccnc(Cl)c4)n3n2)CC1 [Example 276, N-(2-chloro-4-pyridinyl)-8-(cyclopropylamino)-6-((trans-4-(((2-methoxyethyl)carbamoyl)amino)cyclohexyl)amino)imidazo [1,2-b]pyridazine-3-carboxamide] | 160 nM | 15.5 nM | 1.1 nM |
| O=C(Nc1ccncc1F)c1cnc2c(NC3CC3)cc(N[C@H]3CC[C@H](NCC(O)CO)CC3)nn12 (stereo partly drawn) [Example 524, 8-(cyclopropylamino)-6-((trans-4-((2,3-dihydroxypropyl)amino)cyclohexyl)amino)-N-(3-fluoro-4-pyridinyl)imidazo [1,2-b]pyridazine-3-carboxamide] | 1150 nM | 21 nM | 4 nM |
| NCC(=O)N[C@H]1CC[C@H](Nc2cc(NC3CC3)c3ncc(C(=O)Nc4ccnc(Cl)c4)n3n2)CC1 [Example 163, N-(2-chloro-4-pyridinyl)-8-(cyclopropylamino)-6-((trans-4-(glycylamino)cyclohexyl)amino)imidazo [1,2-b]pyridazine-3-carboxamide] | 560 nM | 29.6 nM | 0.4 nM |
| N#CCC(=O)N[C@H]1CC[C@H](Nc2cc(NC3CC3)c3ncc(C(=O)Nc4ccnc(Cl)c4)n3n2)CC1 [Example 34, N-(2-chloropyridin-4-yl)-6-((trans)-4-(2-cyanoacetamido)cyclohexylamino)-8-(cyclopropylamino)imidazo[1,2-b]pyridazine-3-carboxamide] | 170 nM | 11.5 nM | 0.8 nM |
| O=C(Nc1ccnc(Cl)c1)c1cnc2c(NC3CC3)cc(N[C@H]3CC[C@H](NCCO)CC3)nn12 [Example 531, N-(2-chloro-4-pyridinyl)-8-(cyclopropylamino)-6-((trans-4-((2-hydroxyethyl)amino)cyclohexyl)amino) imidazo[1,2-b]pyridazine-3-carboxamide] | 260 nM | 28 nM | 3 nM |
| CN(C)CCOc1ccc(Nc2cc(N[C@H]3CC[C@H](N)CC3)nn3c(C(=O)Nc4ccncc4F)cnc23)cc1 [Example 501, 6-((trans-4-aminocyclohexyl)amino)-8-((4-(2-(dimethylamino)ethoxy)phenyl)amino)-N-(3-fluoro-4-pyridinyl)imidazo[1,2-b]pyridazine-3-carboxamide] | 450 nM | 234 nM | 87 nM |
| N[C@H]1CC[C@H](Nc2cc(NC3CCC3)c3ncc(C(=O)Nc4ccncc4)n3n2)CC1 [Example 3, 6-((trans-4-aminocyclohexyl)amino)-8-(cyclobutylamino)-N-4-pyridinylimidazo[1,2-b]pyridazine-3-carboxamide] | 80 nM | 35 nM | 15 nM |
| O=C(Nc1ccnc(F)c1)c1cnc2c(NC3CC3)cc(N[C@H]3CC[C@H](NC(=O)C4CCCNC4)CC3)nn12 (stereo partly drawn) [Example 144, 8-(cyclopropylamino)-N-(2-fluoro-4-pyridinyl)-6-((trans-4-((3-piperidinylcarbonyl)amino)cyclohexyl)amino) imidazo[1,2-b]pyridazine-3-carboxamide] | > 2500 nM | 183 nM | 70 nM |
| Cc1cc(Nc2cc(N[C@H]3CC[C@H](O)CC3)nn3c(C(=O)Nc4ccnc(Cl)c4)cnc23)nn1C [Example 553, N-(2-chloro-4-pyridinyl)-8-((1,5-dimethyl-1H-pyrazol-3-yl)amino)-6-((trans-4-hydroxycyclohexyl)amino)imidazo[1,2-b]pyridazine-3-carboxamide] | 40 nM | 19.6 nM | 2.1 nM |
| O=C(Nc1ccnc(Cl)c1)c1cnc2c(NC3CC3)cc(N[C@H]3CC[C@H](NC(=O)C4COCCN4)CC3)nn12 (stereo partly drawn) [Example 198, N-(2-chloro-4-pyridinyl)-8-(cyclopropylamino)-6-((trans-4-((3-morpholinylcarbonyl)amino)cyclohexyl)amino)imidazo [1,2-b]pyridazine-3-carboxamide] | 90 nM | 3.6 nM | 1.5 nM |
| C[C@H](CN)C(=O)N[C@H]1CC[C@H](Nc2cc(NC3CC3)c3ncc(C(=O)Nc4ccnc(Cl)c4)n3n2)CC1 [Example 146, 6-((trans-4-(((2R)-3-amino-2-methylpropanoyl)amino)cyclohexyl)amino) N-(2-chloro-4-pyridinyl)-8-(cyclopropylamino)imidazo [1,2-b]pyridazine-3-carboxamide] | 590 nM | 25.9 nM | 1.5 nM |
| NCC(=O)N[C@H]1CC[C@H](Nc2cc(NC3CC3)c3ncc(C(=O)Nc4ccncc4F)n3n2)CC1 [Example 124, 8-(cyclopropylamino)-N-(3-fluoro-4-pyridinyl)-6-((trans-4-(glycylamino)cyclohexyl)amino)imidazo[1,2-b]pyridazine-3-carboxamide] | 300 nM | 31 nM | 8 nM |
